For 41 molecules, IC50 and IC90 results are on record in ChEMBL document CHEMBL4483862, “Open-source discovery of chemical leads for next-generation chemoprotective antimalarials” (2018).

A word on the IC50: it is the point on the concentration scale where inhibition reaches its midpoint. As usually defined, the IC90 is the point of the concentration-response curve where the effect stands at 90%.

The subject of the test is Plasmodium berghei. Put plainly: Luciferase/luciferin-expressing antifolate-resistant parasites were used to infect a culture of HepG2 cells that were pre-incubated with compounds. Infected hepatocytes emit light due to the luciferase reaction. Assay results are presented as the percent inhibition of light emission compared to control. […]. It is filed as functional. The conditions noted are these: sporozoite; for IC90: read-out: LUCIFERASE INFECTION ASSAY - IC90.

Where [1] appears, read: read-out: LUCIFERASE INFECTION ASSAY - IC50.

A value given as a limit tells only on which side of the number the result lay.

As to `Cc1ccc(C(=N)NOC(=O)c2cccc(Cn3cc(C(F)(F)F)ccc3=O)c2)cc1`, the IC90 was above 7.69 µM. In addition, the IC50 under setting [1] was above 7.69 µM.
As to `Cc1c(C(=O)Nc2nc(CN3CC(C)CC(C)C3)cs2)[nH]c2c1C(=O)CC(C)(C)C2` (configuration not stated), the IC90 turned out to be 9.99 µM. In addition, the IC50 (PBLUC_HILL_SLOPE 1.7, PBLUC_R_SQUARED 0.746, read-out: LUCIFERASE INFECTION ASSAY - IC50) came out at 2.74 µM.
Turning to `CCc1[nH]c(=O)c(C#N)c(-c2ccccc2)c1C(=O)OC`, the IC90 is above 11.7 µM. Moreover, the IC50 under setting [1] is above 11.7 µM.
Regarding `Cc1ccc(-n2c(C)cc(C(=O)Cn3nc(C)c(C)c(C#N)c3=O)c2C)cc1C`, the IC90 is above 10 µM. Moreover, the IC50 (HEPG2TOX_HILL_SLOPE 1.5, HEPG2TOX_R_SQUARED 0.806, PBLUC_HILL_SLOPE 3.65, PBLUC_R_SQUARED 0.115, read-out: LUCIFERASE INFECTION ASSAY - IC50) came to 9.8 µM.
Regarding `Cc1nnc(Sc2nc(CN3CCCCC3)nc3sc4c(c23)CCC4)s1`, the IC90 is above 10 µM. Further, the IC50 (HEPG2TOX_HILL_SLOPE 9.43, HEPG2TOX_R_SQUARED 0.839, read-out: LUCIFERASE INFECTION ASSAY - IC50) was above 10 µM.
For the molecule `CCOC(=O)c1cc(-c2ccccc2)sc1NC(=O)CSc1nnc(-c2ccc(C(C)(C)C)cc2)n1-c1ccccc1`, the IC90 is above 10 µM. Moreover, for the setting “FFLUC_HILL_SLOPE 0.186, FFLUC_R_SQUARED 0.0278, read-out: LUCIFERASE INFECTION ASSAY - IC50”, the IC50 was above 10 µM.
Turning to `O=C(N/N=C/C1=C(N2CCOCC2)C(=C\c2ccccc2)/CC1)c1ccco1`, the IC90 was found to be 3.47 µM. The IC50 under setting [1] stood at 2.96 µM.
On to `Oc1c(C(c2ccc(F)cc2)N2CCCCC2)cc(Cl)c2cccnc12` (configuration not stated), for which the IC90 was above 10 µM. Moreover, for the setting “PBLUC_HILL_SLOPE 3.21, PBLUC_R_SQUARED 0.483, read-out: LUCIFERASE INFECTION ASSAY - IC50”, the IC50 is 6.21 µM.
With `CC(=O)NCc1ccc(-c2csc(NC(=O)CCc3ccco3)n2)cc1`, the IC90 was above 10 µM. Further, the IC50 under setting [1] is above 10 µM.
As for `Cc1ccc(C(=O)OC(C)C(=O)N2CCCC2)cc1S(=O)(=O)N1CCCCC1` (configuration not stated), the IC90 worked out at 1.37 µM. Also, the IC50 (PBLUC_HILL_SLOPE 7.98, PBLUC_R_SQUARED 0.937, read-out: LUCIFERASE INFECTION ASSAY - IC50) was 1.04 µM.
`CC(C)(C)C(=O)/C=c1\s/c(=C\c2ccsc2)c(=O)n1CC(=O)N1CCc2ccccc21`: the IC90 was above 10 µM. The IC50 under setting [1] is above 10 µM.
Regarding `CCCc1nc2ccccc2n1CC(=O)N1N=C(c2ccc(Cl)cc2)CC1c1ccco1` (configuration not stated), the IC90 is above 10 µM. For the setting “PBLUC_HILL_SLOPE 1.73, PBLUC_R_SQUARED 0.265, read-out: LUCIFERASE INFECTION ASSAY - IC50”, the IC50 is above 10 µM.
On to `O=[N+]([O-])c1cccc(-c2csc(CS(=O)(=O)c3cccs3)n2)c1`, for which the IC90 was above 9.01 µM. The IC50 under setting [1] was above 9.01 µM.
Regarding `CCCn1nc(C(=O)Nc2ccccc2Cc2ccccc2)c2ccccc2c1=O`, the IC90 is above 10 µM. In addition, the IC50 (FFLUC_HILL_SLOPE 12.7, FFLUC_R_SQUARED 0.0456, HEPG2TOX_HILL_SLOPE 0.0305, HEPG2TOX_R_SQUARED 0.0383, read-out: LUCIFERASE INFECTION ASSAY - IC50) is above 10 µM.
`CC(C)N(C(=O)NC(=O)Nc1nc(-c2ccccc2)cs1)S(C)(=O)=O`: the IC90 was above 10 µM. Further, for the setting “HEPG2TOX_HILL_SLOPE 10.9, HEPG2TOX_R_SQUARED 0.151, read-out: LUCIFERASE INFECTION ASSAY - IC50”, the IC50 was above 10 µM.
In the case of `CC(C)c1ccc(C(=O)CSc2nc(N)cc(N)n2)c(C(C)C)c1`, the IC90 was above 10 µM. The IC50 (PBLUC_HILL_SLOPE 15.6, PBLUC_R_SQUARED 0.415, read-out: LUCIFERASE INFECTION ASSAY - IC50) came out at 9.92 µM.
As for `C/C(=N\NC(=O)c1ccc(COc2c(Br)cc(C)cc2Br)cc1)c1ccc(O)cc1O`, the IC90 amounted to 1.28 µM. The IC50 under setting [1] worked out at 1.12 µM.
With `CC(=O)Nc1cccc(-c2ccc3ncc(-c4cccs4)n3n2)c1`, the IC90 is above 10 µM. Also, the IC50 (HEPG2TOX_HILL_SLOPE 0.699, HEPG2TOX_R_SQUARED 0.927, PBLUC_HILL_SLOPE 0.967, PBLUC_R_SQUARED 0.554, read-out: LUCIFERASE INFECTION ASSAY - IC50) is 2.81 µM.
Regarding `COc1ccc(Br)cc1/C=C/C(=O)c1ccc(OCC#N)cc1`, the IC90 is above 10 µM. Moreover, the IC50 (PBLUC_HILL_SLOPE 7.84, PBLUC_R_SQUARED 0.11, read-out: LUCIFERASE INFECTION ASSAY - IC50) was determined as 9.52 µM.
As to `Cn1/c(=N/C(=O)c2ccc(=O)[nH]c2)sc2ccccc21`, the IC90 was above 10 µM. For the same molecule, the IC50 (HEPG2TOX_HILL_SLOPE 1.38, HEPG2TOX_R_SQUARED 0.749, PBLUC_HILL_SLOPE 1.3, PBLUC_R_SQUARED 0.494, read-out: LUCIFERASE INFECTION ASSAY - IC50) was determined as 2.61 µM.
In the case of `c1ccc(Oc2ccc(-c3cnc4cnc(-c5cccnc5)cn34)cc2)cc1`, the IC90 amounted to 6.96 µM. Moreover, under setting [1], the IC50 worked out at 3 µM.
As to `S=C(Nc1ccc(Cl)c(Cl)c1)N1c2ccccc2-n2cccc2C1c1cccnc1` (configuration not stated), the IC90 is 6.49 µM. The IC50 (PBLUC_HILL_SLOPE 3.68, PBLUC_R_SQUARED 0.381, read-out: LUCIFERASE INFECTION ASSAY - IC50) came to 3.57 µM.
On to `COc1ccc(NC(=O)Nc2ccc3nc(-c4ccccc4)nn3c2)cc1OC`, for which the IC90 is above 10 µM. Besides, the IC50 under setting [1] is above 10 µM.
Take `Cc1c(C(=O)Nc2ncccc2O)[nH]c2c1C(=O)CCC2`: the IC90 is above 10 µM. For the same molecule, where the note is “FFLUC_HILL_SLOPE 16.5, FFLUC_R_SQUARED 0.153, HEPG2TOX_HILL_SLOPE 5.63, HEPG2TOX_R_SQUARED 0.429, read-out: LUCIFERASE INFECTION ASSAY - IC50”, the IC50 is above 10 µM.
On to `CCC(=O)NC1=C(Nc2ccc(SC(F)F)cc2)C(=O)c2ccccc2C1=O`, for which the IC90 was determined as 4.5 µM. The IC50 (HEPG2TOX_HILL_SLOPE 7.23, HEPG2TOX_R_SQUARED 0.37, PBLUC_HILL_SLOPE 1.96, PBLUC_R_SQUARED 0.792, read-out: LUCIFERASE INFECTION ASSAY - IC50) is 1.47 µM.
For the molecule `COc1ccccc1CNC(=O)CN1CCN(c2cc(C)nc(C(C)C)n2)CC1`, the IC90 is above 10 µM. Further, the IC50 under setting [1] is above 10 µM.
Turning to `COc1cc(CNc2ncnc3sc(-c4ccccc4)cc23)ccn1`, the IC90 was above 10 µM. Besides, the IC50 under setting [1] amounted to 8.74 µM.
`CCn1c(C)nc2cc(C(=O)NNC(=O)c3cc(=O)[nH]c4ccccc34)ccc21`: the IC90 is above 10 µM. Under setting [1], the IC50 is above 10 µM.
Take `O=[N+]([O-])c1cc(/C=C/c2nc3ccccc3s2)ccc1N1CCOCC1`: the IC90 was above 10 µM. Also, under “PBLUC_HILL_SLOPE 0.872, PBLUC_R_SQUARED 0.699, read-out: LUCIFERASE INFECTION ASSAY - IC50”, the IC50 stood at 1.4 µM.
Turning to `N#Cc1ccc(-c2ccc3nnc(-c4cccc(C(F)(F)F)c4)n3c2)cc1`, the IC90 was determined as 7.29 µM. Moreover, the IC50 (HEPG2TOX_HILL_SLOPE 3.44, HEPG2TOX_R_SQUARED 0.706, PBLUC_HILL_SLOPE 4.37, PBLUC_R_SQUARED 0.179, read-out: LUCIFERASE INFECTION ASSAY - IC50) came out at 4.41 µM.
For the molecule `O=C(NCCO)c1ccc(-c2cn3c(-c4ccc(Oc5ccccc5)cc4)cnc3cn2)cc1`, the 90% effect concentration (IC90) was above 7.33 µM. Under setting [1], the IC50 is above 7.33 µM.
With `N#Cc1c(N)nc(Sc2ccc(Cl)cc2)c(C#N)c1-c1ccccc1Cl`, the IC90 is above 8.31 µM. The IC50 (HEPG2TOX_HILL_SLOPE 9.05, HEPG2TOX_R_SQUARED 0.0303, PBLUC_HILL_SLOPE 3.41, PBLUC_R_SQUARED 0.0674, read-out: LUCIFERASE INFECTION ASSAY - IC50) was 7.69 µM.
In the case of `CC(=O)c1c(C)[nH]c(C(=O)CN(C)Cc2ccc(C(C)(C)C)cc2)c1C`, the IC90 is above 10 µM. Also, the IC50 under setting [1] was above 10 µM.
In the case of `O=C(Nc1ccc(-c2csc(NC(=O)c3c[nH]nc3-c3ccccc3)n2)cc1)c1ccccc1`, the IC90 came to 7.36 µM. For the same molecule, the IC50 under setting [1] stood at 2.42 µM.
Consider `Cc1ccc(C2=NN(C(=O)c3ccccc3)C(c3ccccc3O)C2)cc1` (configuration not stated), for which the IC90 was 8.37 µM. In addition, the IC50 (FFLUC_HILL_SLOPE 4.22, FFLUC_R_SQUARED 0.285, HEPG2TOX_HILL_SLOPE 3.02, HEPG2TOX_R_SQUARED 0.969, PBLUC_HILL_SLOPE 1.84, PBLUC_R_SQUARED 0.813, read-out: LUCIFERASE INFECTION ASSAY - IC50) is 2.54 µM.
On to `CCc1sc(C(=O)NNC(=O)CN2CCN(c3ccc([N+](=O)[O-])cc3)CC2)cc1C`, for which the IC90 was above 10 µM. Also, under setting [1], the IC50 is above 10 µM.
Consider `N#CCCN(Cc1ccco1)C(=O)Cn1ncc(Cl)c(Cl)c1=O`, for which the IC90 is above 10 µM. The IC50 (PBLUC_HILL_SLOPE 3.57, PBLUC_R_SQUARED 0.442, read-out: LUCIFERASE INFECTION ASSAY - IC50) worked out at 8.27 µM.
Take `COc1cccc(CNC(=S)SCC(=O)C(C)(C)C)c1`: the IC90 is above 10.6 µM. Besides, the IC50 under setting [1] was above 10.6 µM.
As to `C[C@H](Nc1ccc(C(F)(F)F)cc1[N+](=O)[O-])C(=O)Nc1nc2ccccc2[nH]1`, the IC90 amounted to 6.29 µM. Moreover, the IC50 (PBLUC_HILL_SLOPE 74.9, PBLUC_R_SQUARED 0.587, read-out: LUCIFERASE INFECTION ASSAY - IC50) was 6.11 µM.
With `CC(=O)N1C=Cc2ccccc2C1CC(=O)Nc1ccc(Cl)c(S(=O)(=O)N2CCCC2)c1` (configuration not stated), the IC90 is above 10 µM. Moreover, the IC50 under setting [1] was above 10 µM.
For the molecule `O=C(c1ccc(-n2cccn2)cc1)N1CCC(n2c(=O)[nH]c3ccccc32)CC1`, the IC90 is above 10 µM. For the same molecule, the IC50 (HEPG2TOX_HILL_SLOPE 0.884, HEPG2TOX_R_SQUARED 0.19, PBLUC_HILL_SLOPE 11.8, PBLUC_R_SQUARED 0.218, read-out: LUCIFERASE INFECTION ASSAY - IC50) turned out to be 9.85 µM.
